# Data reported in patent publication US12410179B2, “Modulators of TNF alpha activity and uses thereof” (RayThera, Inc., priority 2023, dated 2025).
# Molecular target: TNFα (Homo sapiens, UniProt P01375)
# Test: HEK-Blue hTNFα reporter assay
# Format: cell-based
# Design: purchased R&D biosystem (R&D Systems) 210-TA-020/CF
# Conditions: HEK-Blue hTNFα reporter cells, SEAP readout; read-out: IC50 Range
# Procedure, shortened: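 IC50 from 4-parameter regression of % inhibition, with OD620 of secreted SEAP (QUANTI-Blue, 1 h) referenced to cells with and without hTNFα. HEK-Blue TNFα reporter cells were exposed 24 h to compound premixed 1 h with hTNFα ([…]).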
# Chain of TNFα (P01375 77-233 limits assumed): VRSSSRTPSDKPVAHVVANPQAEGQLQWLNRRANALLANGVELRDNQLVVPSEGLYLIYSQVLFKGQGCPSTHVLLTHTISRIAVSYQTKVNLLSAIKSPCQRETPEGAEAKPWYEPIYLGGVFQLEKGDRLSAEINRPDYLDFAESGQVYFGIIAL
row,IC50,SMILES
1,< 0.025 µM,[2H]C([2H])([2H])N1C(=O)c2cccc(OC(F)F)c2[C@H]2C[C@@H]1c1nn3ccc(-c4cnc([C@H](N)C5CC5)nc4)cc3c12 [Example 257]
2,< 0.025 µM,[2H]C([2H])([2H])N1C(=O)c2cccc(OC(F)F)c2[C@H]2C[C@@H]1c1nn3ccc(-c4cnc([C@@H](N)C5CC5)nc4)cc3c12 [Example 258]
3,< 0.025 µM,[2H]C([2H])([2H])N1C(=O)c2cccc(OC(F)F)c2[C@H]2C[C@@H]1c1nn3cc(C)c(-c4cnc([C@]5(N)C[C@@](C)(C#N)C5)nc4)cc3c12 [Example 259]
4,0.025 to 0.1 µM,[2H]C([2H])([2H])N1C(=O)c2cccc(OC(F)F)c2[C@H]2C[C@@H]1c1nn3cc(F)c(-c4cnc([C@]5(O)C[C@@](C)(N)C5)cn4)cc3c12 [Example 260]
5,0.025 to 0.1 µM,[2H]C([2H])([2H])N1C(=O)c2cccc(OC(F)F)c2[C@H]2C[C@@H]1c1nn3cnc(-c4cnc([C@]5(O)C[C@@](C)(N)C5)nc4)cc3c12 [Example 261]
6,< 0.025 µM,[2H]C([2H])([2H])N1C(=O)c2cccc(OC(F)F)c2[C@H]2C[C@@H]1c1nn3cnc(-c4cnc(C5(N)CCC5)nc4)cc3c12 [Example 262]
7,< 0.025 µM,[2H]C([2H])([2H])N1C(=O)c2cccc(OC(F)F)c2[C@H]2C[C@@H]1c1nn3cnc(-c4cnc([C@]5(N)C[C@@](C)(O)C5)nc4C)cc3c12 [Example 263]
8,< 0.025 µM,[2H]C([2H])([2H])N1C(=O)c2cccc(OC(F)F)c2[C@H]2C[C@@H]1c1nn3ccc(-c4cnc([C@](C)(N)CC#N)nc4)cc3c12 [Example 264]
9,< 0.025 µM,[2H]C([2H])([2H])N1C(=O)c2cccc(OC(F)F)c2[C@H]2C[C@@H]1c1nn3ccc(-c4cnc([C@@](C)(N)CC#N)nc4)cc3c12 [Example 265]
10,< 0.025 µM,[2H]C([2H])([2H])N1C(=O)c2cccc(OC(F)F)c2[C@H]2C[C@@H]1c1nn3ccc(-c4cnc(C5(N)CC5)cn4)cc3c12 [Example 266]
11,< 0.025 µM,[2H]C([2H])([2H])N1C(=O)c2cccc(OC(F)F)c2[C@H]2C[C@@H]1c1nn3cc(F)c(-c4cnc([C@]5(N)C[C@@](C)(O)C5)nc4)cc3c12 [Example 267]
12,< 0.025 µM,[2H]C([2H])([2H])N1C(=O)c2cccc(OC(F)F)c2[C@H]2C[C@@H]1c1nn3cc(F)c(-c4cnc([C@]5(N)C[C@@](C)(CO)C5)c(F)c4)nc3c12 [Example 268]
13,< 0.025 µM,[2H]C([2H])([2H])N1C(=O)c2cccc(OC(F)F)c2[C@H]2C[C@@H]1c1nn3ccc(-c4cnc([C@]5(N)C[C@@](C)(CO)C5)nc4)cc3c12 [Example 269]
14,< 0.025 µM,[2H]C([2H])([2H])N1C(=O)c2cccc(OC(F)F)c2[C@H]2C[C@@H]1c1nn3cc(F)c(-c4cnc([C@]5(N)C[C@@](C)(CO)C5)nc4)cc3c12 [Example 270]
15,< 0.025 µM,[2H]C([2H])([2H])N1C(=O)c2cccc(OC(F)F)c2[C@H]2C[C@@H]1c1nn3ccc(-c4cnc([C@]5(O)C[C@@](C)(C#N)C5)nc4)nc3c12 [Example 271]
16,< 0.025 µM,[2H]C([2H])([2H])N1C(=O)c2cccc(OC(F)F)c2[C@H]2C[C@@H]1c1nn3ccc(-c4cnc([C@]5(O)C[C@](C)(C#N)C5)nc4)nc3c12 [Example 272]
17,< 0.025 µM,[2H]C([2H])([2H])N1C(=O)c2cccc(OC(F)F)c2[C@H]2C[C@@H]1c1nn3cnc(-c4cnc([C@]5(O)C[C@](C)(C#N)C5)nc4)cc3c12 [Example 273]
18,< 0.025 µM,[2H]C([2H])([2H])N1C(=O)c2cccc(OC(F)F)c2[C@H]2C[C@@H]1c1nn3cc(F)c(-c4cnc([C@]5(N)C[C@@](C)(CO)C5)nc4)nc3c12 [Example 274]
19,< 0.025 µM,Cc1nc(C2(N)CCC2)ncc1-c1ccn2nc3c(c2n1)[C@@H]1C[C@H]3NC(=O)c2cccc(OC(F)F)c21 [Example 275]
20,0.025 to 0.1 µM,[2H]C([2H])([2H])N1C(=O)c2cccc(OC(F)F)c2[C@H]2C[C@@H]1c1nn3ccc(-c4cnc([C@@H](N)C5CC5)nc4)nc3c12 [Example 276]
21,< 0.025 µM,[2H]C([2H])([2H])N1C(=O)c2cccc(OC(F)F)c2[C@H]2C[C@@H]1c1nn3ccc(-c4cnc([C@H](N)C5CC5)nc4)nc3c12 [Example 277]
22,< 0.025 µM,[2H]C([2H])([2H])N1C(=O)c2cccc(OC(F)F)c2[C@H]2C[C@@H]1c1nn3ccc(-c4cnc(C5(O)CN(C)C5)nc4)cc3c12 [Example 278]
23,< 0.025 µM,[2H]C([2H])([2H])N1C(=O)c2cccc(OC(F)F)c2[C@H]2C[C@@H]1c1nn3ccc(-c4cnc([C@]5(C#N)C[C@@](C)(N)C5)nc4)cc3c12 [Example 279]
24,< 0.025 µM,[2H]C([2H])([2H])N1C(=O)c2cccc(OC(F)F)c2[C@H]2C[C@@H]1c1nn3ccc(-c4cnc([C@]5(C#N)C[C@](C)(N)C5)nc4)cc3c12 [Example 280]
25,< 0.025 µM,[2H]C([2H])([2H])N1C(=O)c2cccc(OC(F)F)c2[C@H]2C[C@@H]1c1nn3ccc(-c4cnc([C@]5(N)C[C@@](C)(O)C5)nc4C)cc3c12 [Example 281]
26,< 0.025 µM,[2H]C([2H])([2H])N1C(=O)c2ccc(F)c(OC(F)F)c2[C@H]2C[C@@H]1c1nn3ccc(-c4cnc(C5(N)CCC5)nc4)nc3c12 [Example 282]

# The remaining lines, values behind:
row,SMILES,IC50
1,[2H]C([2H])([2H])N1C(=O)c2cccc(OC(F)F)c2[C@H]2C[C@@H]1c1nn3ccc(-c4cnc([C@]5(N)C[C@@](C)(C#N)C5)nc4C)cc3c12 [Example 231],< 0.025 µM
2,[2H]C([2H])([2H])N1C(=O)c2cccc(OC(F)F)c2[C@H]2C[C@@H]1c1nn3ccc(-c4cnc([C@]5(C#N)C[C@@](C)(N)C5)nc4)nc3c12 [Example 232],0.1 to 1 µM
3,NC1(c2ncc(-c3ccn4nc5c(c4c3)[C@@H]3C[C@H]5NC(=O)c4cccc(OC5CC5)c43)cn2)CCC1 [Example 233],0.025 to 0.1 µM
4,Cc1nc(C2(N)CCC2)ncc1-c1ccn2nc3c(c2c1)[C@@H]1C[C@H]3NC(=O)c2cccc(OC(F)F)c21 [Example 234],< 0.025 µM
5,C[C@]1(C#N)C[C@](N)(c2ncc(-c3nc4c5c(nn4cc3F)[C@H]3C[C@@H]5c4c(OC(F)F)cccc4C(=O)N3)cn2)C1 [Example 235],< 0.025 µM
6,[2H]C([2H])([2H])N1C(=O)c2cccc(OC(F)F)c2[C@H]2C[C@@H]1c1nn3ccc(-c4cnc([C@]5(C#N)C[C@](C)(N)C5)nc4)nc3c12 [Example 236],0.1 to 1 µM
7,[2H]C([2H])([2H])N1C(=O)c2cccc(OC(F)F)c2[C@H]2C[C@@H]1c1nn3cc(C)c(-c4cnc([C@]5(N)C[C@@](C)(C#N)C5)nc4)nc3c12 [Example 237],< 0.025 µM
8,[2H]C([2H])([2H])N1C(=O)c2cccc(OC(F)F)c2[C@H]2C[C@@H]1c1nn3ccc(-c4cnc(C5(N)CC5)nc4)nc3c12 [Example 238],< 0.025 µM
9,[2H]C([2H])([2H])N1C(=O)c2cccc(OC(F)F)c2[C@H]2C[C@@H]1c1nn3cc(F)c(-c4cnc(C5(N)CC5)nc4)nc3c12 [Example 239],< 0.025 µM
10,[2H]C([2H])([2H])N1C(=O)c2cccc(OC(F)F)c2[C@H]2C[C@@H]1c1nn3cc(F)c(-c4cnc([C@]5(N)C[C@@](C)(C#N)C5)nc4)cc3c12 [Example 240],< 0.025 µM
11,[2H]C([2H])([2H])N1C(=O)c2cccc(OC(F)F)c2[C@H]2C[C@@H]1c1nn3ccc(-c4cnc(C5(N)CCC5)nc4C)cc3c12 [Example 241],< 0.025 µM
12,[2H]C([2H])([2H])N1C(=O)c2cccc(OC(F)F)c2[C@H]2C[C@@H]1c1nn3ccc(-c4cnc(C5(N)CCC5)nc4C)nc3c12 [Example 242],< 0.025 µM
13,[2H]C([2H])([2H])N1C(=O)c2cccc(OC(F)F)c2[C@H]2C[C@@H]1c1nn3ccc(-c4cnc(C5(NC)CC5)nc4)nc3c12 [Example 243],0.025 to 0.1 µM
14,[2H]C([2H])([2H])N1C(=O)c2cccc(OC(F)F)c2[C@H]2C[C@@H]1c1nn3cc(F)c(-c4cnc([C@]5(N)C[C@](C)(C#N)C5)nc4)cc3c12 [Example 244],< 0.025 µM
15,[2H]C([2H])([2H])N1C(=O)c2cccc(OC(F)F)c2[C@H]2C[C@@H]1c1nn3cnc(-c4cnc(C5(N)CC5)nc4)cc3c12 [Example 245],< 0.025 µM
16,[2H]C([2H])([2H])N1C(=O)c2cccc(OC(F)F)c2[C@H]2C[C@@H]1c1nn3ccc(-c4cnc([C@]5(O)C[C@@](C)(N)C5)c(F)c4)cc3c12 [Example 246],< 0.025 µM
17,[2H]C([2H])([2H])N1C(=O)c2cccc(OC(F)F)c2[C@H]2C[C@@H]1c1nn3ccc(-c4cnc(C5(N)COC5)cn4)cc3c12 [Example 247],< 0.025 µM
18,[2H]C([2H])([2H])N1C(=O)c2cccc(OC(F)F)c2[C@H]2C[C@@H]1c1nn3ccc(-c4cnc(C5(N)CCC5)nc4)cc3c12 [Example 248],< 0.025 µM
19,[2H]C([2H])([2H])N1C(=O)c2cccc(OC(F)F)c2[C@H]2C[C@@H]1c1nn3ccc(-c4cnc([C@]5(O)C[C@@](C)(C#N)C5)c(F)c4)nc3c12 [Example 249],< 0.025 µM
20,[2H]C([2H])([2H])N1C(=O)c2cccc(OC(F)F)c2[C@H]2C[C@@H]1c1nn3ccc(-c4cnc(C5(N)CCC5)c(F)c4)cc3c12 [Example 250],< 0.025 µM
21,[2H]C([2H])([2H])N1C(=O)c2cccc(OC)c2[C@H]2C[C@@H]1c1nn3ccc(-c4cnc(C5(N)CCC5)nc4)cc3c12 [Example 251],< 0.025 µM
22,[2H]C([2H])([2H])N1C(=O)c2cccc(OC(F)F)c2[C@H]2C[C@@H]1c1nn3ccc(-c4cnc([C@]5(O)C[C@@](C)(N)C5)cn4)cc3c12 [Example 253],< 0.025 µM
23,[2H]C([2H])([2H])N1C(=O)c2cccc(OC(F)F)c2[C@H]2C[C@@H]1c1nn3ccc(-c4cnc(C(C)(C)N)nc4)cc3c12 [Example 254],< 0.025 µM
24,[2H]C([2H])([2H])N1C(=O)c2cccc(OC(F)F)c2[C@H]2C[C@@H]1c1nn3ccc(-c4cnc(C5(N)CC5)nc4)cc3c12 [Example 255],< 0.025 µM
25,[2H]C([2H])([2H])N1C(=O)c2cccc(OC(F)F)c2[C@H]2C[C@@H]1c1nn3cc(F)c(-c4cnc([C@]5(O)C[C@@](C)(N)C5)c(F)c4)cc3c12 [Example 256],< 0.025 µM
